{"source": "patent US8987193B2", "about": "“Nisin derivatives and the use thereof” (University College Cork—National University of Ireland, Cork, priority 2008, dated 2015)", "note": "Ends that are not written are not given here."}
{"tested_on": "C. sporogenes CBC5", "assay": "Deferred antagonism assay", "type": "cell-based, Clostridium sporogenes", "design": "key: + = Enhanced bioactivity relative to control; − = Bioactivity equal to or less than control; NA = no activity evident", "details": "XX and XXX hinge mutant producers"}
{"substance": "NisinA GLA (ITSISLCTPGCKTGALMGCGLATATCHCSIHVSK; cysteine pairing not given here; also: lantibiotic nisin-A; UniProt P13068 24-57, looked up, variant N20G M21L K22A) [nisin A hinge variant GLA (i.e. N20G, M21L, K22A)]", "bioactivity relative to a nisin A-producing control": "−"}
{"substance": "NisinA HLT (ITSISLCTPGCKTGALMGCHLTTATCHCSIHVSK; cysteine pairing not given here; also: lantibiotic nisin-A; UniProt P13068 24-57, looked up, variant N20H M21L K22T) [nisin A hinge variant HLT (i.e. N20H, M21L, K22T)]", "bioactivity relative to a nisin A-producing control": "−"}
{"substance": "NisinA GVK", "bioactivity relative to a nisin A-producing control": "−"}
{"substance": "NisinA PTA", "bioactivity relative to a nisin A-producing control": "−"}
{"substance": "NisinA SVA (ITSISLCTPGCKTGALMGCSVATATCHCSIHVSK; not fully specified (bridges); also: lantibiotic nisin-A: lanthionine rings and dehydrated residues, places not given here; UniProt P13068 24-57, looked up, variant N20S M21V K22A) [nisin A hinge variant SVA (i.e. N20S, M21V, K22A)]", "bioactivity relative to a nisin A-producing control": "−"}
{"substance": "NisinA PMQ", "bioactivity relative to a nisin A-producing control": "−"}
{"substance": "NisinA PSL", "bioactivity relative to a nisin A-producing control": "−"}
{"substance": "NisinA PMM", "bioactivity relative to a nisin A-producing control": "−"}
{"substance": "NisinA PIM", "bioactivity relative to a nisin A-producing control": "−"}
{"substance": "NisinA PTL (ITSISLCTPGCKTGALMGCPTLTATCHCSIHVSK; thioether (positions not given here); not fully specified (residues 2, 5, 33, bridges); also: lantibiotic nisin A, thioether rings and dehydro residues not given here; UniProt P13068 24-57, looked up, variant N20P M21T K22L) [nisin A hinge variant PTL (i.e. N20P, M21T, K22L)]", "bioactivity relative to a nisin A-producing control": "−"}
{"substance": "NisinA PAK", "bioactivity relative to a nisin A-producing control": "−"}
{"substance": "NisinA PMT", "bioactivity relative to a nisin A-producing control": "−"}
{"substance": "NisinA PMC", "bioactivity relative to a nisin A-producing control": "−"}
{"substance": "NisinA PAL (ITSISLCTPGCKTGALMGCPALTATCHCSIHVSK; not fully specified (bridges); also: lantibiotic nisin-A: lanthionine rings and dehydrated residues, places not given here; UniProt P13068 24-57, looked up, variant N20P M21A K22L) [nisin A hinge variant PAL (i.e. N20P, M21A, K22L)]", "bioactivity relative to a nisin A-producing control": "−"}
{"substance": "NisinA PIA", "bioactivity relative to a nisin A-producing control": "−"}
{"substance": "NisinA PNR (ITSISLCTPGCKTGALMGCPNRTATCHCSIHVSK; not fully specified (bridges); also: lantibiotic nisin-A: lanthionine rings and dehydrated residues, places not given here; UniProt P13068 24-57, looked up, variant N20P M21N K22R) [nisin A hinge variant PNR (i.e. N20P, M21N, K22R)]", "bioactivity relative to a nisin A-producing control": "−"}
{"substance": "NisinA QLT (ITSISLCTPGCKTGALMGCQLTTATCHCSIHVSK; not fully specified (bridges); also: lantibiotic nisin-A: lanthionine rings and dehydrated residues, places not given here; UniProt P13068 24-57, looked up, variant N20Q M21L K22T) [nisin A hinge variant QLT (i.e. N20Q, M21L, K22T)]", "bioactivity relative to a nisin A-producing control": "−"}
{"substance": "NisinA PML", "bioactivity relative to a nisin A-producing control": "−"}
{"substance": "NisinA PAT (ITSISLCTPGCKTGALMGCPATTATCHCSIHVSK; not fully specified (bridges); also: lantibiotic nisin-A: lanthionine rings and dehydrated residues, places not given here; UniProt P13068 24-57, looked up, variant N20P M21A K22T) [nisin A hinge variant PAT (i.e. N20P, M21A, K22T)]", "bioactivity relative to a nisin A-producing control": "−"}
{"substance": "NisinA PAA", "bioactivity relative to a nisin A-producing control": "−"}
{"substance": "NisinA PLA (ITSISLCTPGCKTGALMGCPLATATCHCSIHVSK; not fully specified (bridges); also: lantibiotic nisin-A: lanthionine rings and dehydrated residues, places not given here; UniProt P13068 24-57, looked up, variant N20P M21L K22A) [nisin A hinge variant PLA (i.e. N20P, M21L, K22A)]", "bioactivity relative to a nisin A-producing control": "−"}
